From patent publication US20190374533A1, “COMPOUNDS AND METHODS FOR INHIBITING NHE-MEDIATED ANTIPORT IN THE TREATMENT OF DISORDERS ASSOCIATED WITH FLUID RETENTION OR SALT OVERLOAD AND GASTROINTESTINAL TRACT DISORDERS” (Ardelyx, Inc., priority 2008, published 2019) come the findings set out here.

The test system of the test is human duodenum monolayer culture. The experiment in a line: Increased trans-epithelial resistance (TEER) in human organoid monolayer cell cultures. Format: cell-based. To be noted: 1 μM apical, baseline corrected. The method, then:
Transwells were 0.4 μm pore polyester membrane 24-well Transwell inserts (Corning). Cultures were incubated at 37° C. in 5% CO2.
Human duodenum organoids were cultured in WENRNAS (Wnt, EGF, noggin, R-spondin1. Nicotinamide, A83-01, SB202190) and typically grown for 7-12 days before being used to plate monolayer cultures. On day 0, organoid cultures embedded in Matrigel were treated with TrypLE Express to break organoids into small pieces and/or single cells. The cells were resuspended to 0.5×10^6 cells/mL in SBM containing WENRAY (Wnt. EGF, noggin, R-spondin1, A83-01, Y-27632). Following this step, 200 μL of cell suspension was plated into the apical side of a 24-well Transwell (100,000 cells/well) and 600 μL of SBM with WENRAY was added to the basolateral side. Duodenum cells were differentiated with ENA (EGF, noggin, A83-01) on day 3. […]
Each human duodenum monolayer culture well was washed twice with fresh SBM on the apical side on day 6 or day 7 before dosing. […] Transepithelial electrical resistance (TEER) was used as a quantitative technique to measure of tight junction permeability. TEER values were recorded (MERS00002. Millipore) before dosing and 30 mins and 1 hr after dosing for all wells. […] Baseline corrected TEER for each example compound was compared to the average of the DMSO wells and expressed as a percent TEER of vehicle control.

Each structure is given as a SMILES string. Where a name gives a salt, the structure may show the parent alone.

Take `CN1Cc2c(Cl)cc(Cl)cc2[C@H](c2cccc(S(=O)(=O)NCCOCCOCCNC(=O)NCCCCNC(=O)NCCOCCOCCNS(=O)(=O)c3cccc([C@@H]4CN(C)Cc5c(Cl)cc(Cl)cc54)c3)c2)C1` (single isomer, unassigned) [Example 202, (S or R)—N,N′-(10,17-dioxo-3,6,21,24-tetraoxa-9,11,16,18-tetraazahexacosane-1,26-diyl)bis(3-((S)-6,8-dichloro-2-methyl-1,2,3,4-tetrahydroisoquinolin-4-yl)benzenesulfonamide) bis-hydrochloride salt]: the “TEER at 30 minutes (% of Vehicle)” value (30 mins after dosing) is “B (100-130%)”. The “TEER at 60 minues (% of Vehicle)” value (1 hr after dosing) is “B (100-130%)”.
